Experimental data from patent publication US11214803B2, “Modulators of YAP1 expression” (Ionis Pharmaceuticals, Inc., priority 2019, dated 2022).
Strand notation (5' to 3'): a small letter for the sugar, then the base; units joined by * are phosphorothioate-linked, units joined directly phosphodiester-linked; [ ] holds rarer units or linkages, { } end groups; capitals alone tell only the bases. k = constrained ethyl (cEt); [5mC] = 5-methylcytosine; d = 2'-deoxy (DNA)

Experiments:
Format in all cases: cell-based, human
Yap1 mRNA [1] = assay: Yap1 mRNA in NCI H292 cells, RNA analysis (Example 32); settings: free uptake, approximately 48 hours
Experimental: Modified oligonucleotides described in the studies above were tested at various doses in mucoepidermoid pulmonary carcinoma cell line […]. A control oligonucleotide 792169 was also tested.
(§1) Cultured NCI H292 cells at a density of 5000 cells per well were treated using free uptake with modified oligonucleotides diluted to concentrations described in the tables below. After approximately 48 hours, Yap1 mRNA levels were measured as previously described using the Human Yap1 primer-probe set RTS4814. Yap1 mRNA levels were normalized to actin-beta content, as measured by primer probe set RTS5002. Results are presented in the tables below as percent control of the amount of Yap1 mRNA relative to untreated control cells (% UTC).

Yap1 mRNA [2] = assay: Yap1 mRNA in BICR-22 cells, RNA analysis (Example 35); settings: free uptake, approximately 48 hours
Experimental: Modified oligonucleotides described in the studies above were tested at various doses in tongue squamous carcinoma (lymph node metastasis) cell line BICR-22. A control oligonucleotide 792169, described herein above, was also tested.
as §1, with “BICR-22” for “NCI H292”

Yap1 mRNA [3] = assay: Yap1 mRNA in CAL27 cells, RNA analysis (Example 37); settings: free uptake, approximately 48 hours
Experimental: Modified oligonucleotides described in the studies above were tested at various doses in tongue squamous cell carcinoma line CAL27. A control oligonucleotide 792169, described herein above, was also tested.
as §1, with “CAL27” for “NCI H292”

Yap1 mRNA [4] = assay: Yap1 mRNA in Detroit-562 cells, RNA analysis (Example 38); settings: free uptake, approximately 48 hours
Experimental: Modified oligonucleotides described in the studies above were tested at various doses in pharynx carcinoma cell line Detroit-562. A control oligonucleotide 792169, described herein above, was also tested.
as §1, with “Detroit-562” for “NCI H292”

Yap1 mRNA [5] = assay: Yap1 mRNA in SCC-4 cells, RNA analysis (Example 39); settings: free uptake, approximately 48 hours
Experimental: Modified oligonucleotides described in the studies above were tested at various doses in tongue squamous cell carcinoma cell line SCC 4. A control oligonucleotide 792169, described herein above, was also tested.
as §1, with “SCC-4” for “NCI H292”

SNU-899 cells = assay: Cell proliferation assay in SNU-899 cells, CellTiter-Glo (Example 43); settings: free uptake, approximately 144 hours
Experimental: Modified oligonucleotides described in the studies above were tested at various doses in laryngeal squamous cell carcinoma cell line SNU-899. A control oligonucleotide 792169, described herein above, was also tested.
(§2) Cultured SNU-899 cells at a density of 1000 cells/well were treated using free uptake with modified oligonucleotides diluted to concentrations described in the tables below. After approximately 144 hours, cell proliferation was measured using the luminescent cell viability CellTiter-Glo® 2.0 Assay (Promega). Results are presented in the tables below as percent control of the amount of luminescence in samples treated with modified oligonucleotides relative to untreated control cells (% UTC).

SNU-1066 cells = assay: Cell proliferation assay in SNU-1066 cells, CellTiter-Glo (Example 44); settings: free uptake, approximately 144 hours
Experimental: Modified oligonucleotides described in the studies above were tested at various doses in laryngeal squamous cell carcinoma line SNU-1066. A control oligonucleotide 792169, described herein above, was also tested.
as §2, with “SNU-1066” for “SNU-899”

Yap1 mRNA [6] = assay: Yap1 mRNA in SNU-1214 cells, RNA analysis (Example 46); settings: free uptake, approximately 48 hours
Experimental: Modified oligonucleotides described in the studies above were tested at various doses in laryngeal squamous cell carcinoma cell line […]. A control oligonucleotide 792169, described herein above, was also tested.
as §1, with “SNU-1214” for “NCI H292”

Substance	human Yap1 mRNA expression (Yap1 mRNA [1]; 0.04 μM) [% UTC]	human Yap1 mRNA expression (Yap1 mRNA [1]; 0.2 μM) [% UTC]	human Yap1 mRNA expression (Yap1 mRNA [1]; 1 μM) [% UTC]	human Yap1 mRNA expression (Yap1 mRNA [1]; 5 μM) [% UTC]	human Yap1 mRNA expression (Yap1 mRNA [2]; 0.04 μM) [% UTC]	human Yap1 mRNA expression (Yap1 mRNA [2]; 0.2 μM) [% UTC]	human Yap1 mRNA expression (Yap1 mRNA [2]; 1 μM) [% UTC]	human Yap1 mRNA expression (Yap1 mRNA [2]; 5 μM) [% UTC]	human Yap1 mRNA expression (Yap1 mRNA [3]; 0.08 μM) [% UTC]	human Yap1 mRNA expression (Yap1 mRNA [3]; 0.4 μM) [% UTC]	human Yap1 mRNA expression (Yap1 mRNA [3]; 2 μM) [% UTC]	human Yap1 mRNA expression (Yap1 mRNA [3]; 10 μM) [% UTC]	human Yap1 mRNA expression (Yap1 mRNA [4]; 0.04 μM) [% UTC]	human Yap1 mRNA expression (Yap1 mRNA [4]; 0.2 μM) [% UTC]	human Yap1 mRNA expression (Yap1 mRNA [4]; 1 μM) [% UTC]	human Yap1 mRNA expression (Yap1 mRNA [4]; 5 μM) [% UTC]	human Yap1 mRNA expression (Yap1 mRNA [5]; 0.04 μM) [% UTC]	human Yap1 mRNA expression (Yap1 mRNA [5]; 0.2 μM) [% UTC]	human Yap1 mRNA expression (Yap1 mRNA [5]; 1 μM) [% UTC]	human Yap1 mRNA expression (Yap1 mRNA [5]; 5 μM) [% UTC]	also measured
1198440 (AAGTGTATGTCAGAAG; cEt, 2'-MOE, 5-methylcytosine, phosphorothioate modifications, further chemistry not given here) [compound 1198440]	89	53	18	5	44	14	4	4	23	6	4	4	32	8	3	2	63	27	11	5	Antiproliferative effect (cell proliferation, luminescence) (SNU-899 cells; 0.04 μM): 82 % UTC; Antiproliferative effect (cell proliferation, luminescence) (SNU-899 cells; 0.2 μM): 75 % UTC; Antiproliferative effect (cell proliferation, luminescence) (SNU-899 cells; 1 μM): 69 % UTC; Antiproliferative effect (cell proliferation, luminescence) (SNU-899 cells; 5 μM): 66 % UTC; Antiproliferative effect (cell proliferation, luminescence) (SNU-1066 cells; 0.04 μM): 89 % UTC; Antiproliferative effect (cell proliferation, luminescence) (SNU-1066 cells; 0.2 μM): 66 % UTC; Antiproliferative effect (cell proliferation, luminescence) (SNU-1066 cells; 1 μM): 58 % UTC; Antiproliferative effect (cell proliferation, luminescence) (SNU-1066 cells; 5 μM): 43 % UTC; human Yap1 mRNA expression (Yap1 mRNA [6]; 0.04 μM): 40 % UTC; human Yap1 mRNA expression (Yap1 mRNA [6]; 0.2 μM): 11 % UTC; human Yap1 mRNA expression (Yap1 mRNA [6]; 1 μM): 4 % UTC; human Yap1 mRNA expression (Yap1 mRNA [6]; 5 μM): 3 % UTC
CGCCGATAAGGTACAC (cEt gapmer, phosphorothioate backbone, further chemistry not given here) [ION 792169, reference compound]	98	112	111	106	99	98	98	98	95	90	97	88	102	102	94	99	92	106	105	104	Antiproliferative effect (cell proliferation, luminescence) (SNU-899 cells; 0.04 μM): 90 % UTC; Antiproliferative effect (cell proliferation, luminescence) (SNU-899 cells; 0.2 μM): 94 % UTC; Antiproliferative effect (cell proliferation, luminescence) (SNU-899 cells; 1 μM): 96 % UTC; Antiproliferative effect (cell proliferation, luminescence) (SNU-899 cells; 5 μM): 86 % UTC; Antiproliferative effect (cell proliferation, luminescence) (SNU-1066 cells; 0.04 μM): 100 % UTC; Antiproliferative effect (cell proliferation, luminescence) (SNU-1066 cells; 0.2 μM): 104 % UTC; Antiproliferative effect (cell proliferation, luminescence) (SNU-1066 cells; 1 μM): 102 % UTC; Antiproliferative effect (cell proliferation, luminescence) (SNU-1066 cells; 5 μM): 96 % UTC; human Yap1 mRNA expression (Yap1 mRNA [6]; 0.04 μM): 97 % UTC; human Yap1 mRNA expression (Yap1 mRNA [6]; 0.2 μM): 104 % UTC; human Yap1 mRNA expression (Yap1 mRNA [6]; 1 μM): 106 % UTC; human Yap1 mRNA expression (Yap1 mRNA [6]; 5 μM): 109 % UTC
715487 (kA*kT*kT*dA*d[5mC]*dT*dT*d[5mC]*dA*dT*dA*dG*d[5mC]*kT*kT*kA) [compound 715487]	104	83	40	12	82	45	23	13	35	23	5	3	77	29	10	5	81	46	23	13	Antiproliferative effect (cell proliferation, luminescence) (SNU-899 cells; 0.04 μM): 82 % UTC; Antiproliferative effect (cell proliferation, luminescence) (SNU-899 cells; 0.2 μM): 78 % UTC; Antiproliferative effect (cell proliferation, luminescence) (SNU-899 cells; 1 μM): 71 % UTC; Antiproliferative effect (cell proliferation, luminescence) (SNU-899 cells; 5 μM): 62 % UTC; Antiproliferative effect (cell proliferation, luminescence) (SNU-1066 cells; 0.04 μM): 97 % UTC; Antiproliferative effect (cell proliferation, luminescence) (SNU-1066 cells; 0.2 μM): 86 % UTC; Antiproliferative effect (cell proliferation, luminescence) (SNU-1066 cells; 1 μM): 72 % UTC; Antiproliferative effect (cell proliferation, luminescence) (SNU-1066 cells; 5 μM): 47 % UTC; human Yap1 mRNA expression (Yap1 mRNA [6]; 0.04 μM): 71 % UTC; human Yap1 mRNA expression (Yap1 mRNA [6]; 0.2 μM): 36 % UTC; human Yap1 mRNA expression (Yap1 mRNA [6]; 1 μM): 16 % UTC; human Yap1 mRNA expression (Yap1 mRNA [6]; 5 μM): 9 % UTC
